Earlier results in US12208399B2, “Electrochemical separation and recovery of metals” (YALE UNIVERSITY, priority 2017, dated 2025).
Converted amounts (≈) assume the structure as drawn.

Structure (SMILES)	Solubility in water [mg/mL]
O=C1C(Cl)=CC(=Nc2ccc(O)cc2)C=C1Cl [DCIP, 2,6-dichloroindophenol]	10 (≈ 37.3 mM)
Cc1cc2nc3c(=O)[nH]c(=O)nc-3n(C[C@@H](O)[C@@H](O)[C@@H](O)COP(=O)(O)O)c2cc1C [RMP, riboflavin 5′-monophosphate]	100 (≈ 219 mM)
